Laboratory results as given in US4705788A, “Novel antibacterial 7-amino-1(substituted cyclopropyl)-1,4-dihydro-4-oxo-3-quinolinecarboxylic acids” (Bayer Aktiengesellschaft, priority 1985, dated 1987).
≈ marks a conversion by molar mass, not a printed value.

How the values were obtained:
Assay in all cases: MIC, agar dilution test (Isosensitest medium), Denley multipoint inoculator
Format in all cases: cell-based
[1] = system: E. coli A 261; conditions: Escherichia coli, A261, strain E. coli A 261
Description: (§1) Agar dilution test (Isosensitest medium); Denley multipoint inoculator

[2] = system: Klebsiella 8085; conditions: strain Klebsiella 8085
Description: as §1

[3] = system: E. coli Neumann; conditions: Escherichia coli, strain E. coli Neumann
Description: as §1

[4] = system: E. coli T 7; conditions: Escherichia coli, T7, strain E. coli T 7
Description: as §1

| SMILES | MIC [1] | MIC [2] | MIC [3] | MIC [4] |
| --- | --- | --- | --- | --- |
| CC1CN(c2cc3c(cc2F)c(=O)c(C(=O)O)cn3C2(C)CC2)CCN1 (stereo not drawn) [Example 3] | 0.03 µg/mL (≈ 0.0835 µM) | 0.06 µg/mL (≈ 0.167 µM) | 0.06 µg/mL (≈ 0.167 µM) | 0.03 µg/mL (≈ 0.0835 µM) |
| CC1(n2cc(C(=O)O)c(=O)c3cc(F)c(N4CCNCC4)cc32)CC1 [Example 1, 6-fluoro-1,4-dihydro-1-(1-methylcyclopropyl)-4-oxo-7-(1-piperazinyl)-3-quinolinecarboxylic acid] | ≤ 0.015 µg/mL | 0.03 µg/mL (≈ 0.0869 µM) | 0.06 µg/mL (≈ 0.174 µM) | ≤ 0.015 µg/mL |
| CCn1cc(C(=O)O)c(=O)c2cc(F)c(N3CCNCC3)cc21 [Norfloxacin, reference compound] | 0.03 µg/mL (≈ 0.0939 µM) | 0.125 µg/mL (≈ 0.391 µM) | 0.06 µg/mL (≈ 0.188 µM) | 0.06 µg/mL (≈ 0.188 µM) |
